Laboratory results from patent US20050261194A1, “Use of thymulin-like peptides for making pain-relieving medicines” (priority 2001, published 2005).

Tested on: rats
Experiment: SNI (spared nerve injury) mononeuropathy: allodynia and hyperpathy
Assay type: in vivo, rat
Method: Adult male Sprague-Dawley rats (250-300 g) were used for these trials. Over the period of the experiments, the rats were placed under standard conditions (4 to 5 individuals to a cage, 12 hour day/night cycle, 22.2° C.), with free access to water and food. The necessary surgical procedures were done under deep anesthesia using ketamine (Ketalar®, 40-50 mg/kg, intraperitoneal injection), preceded by pre-anesthesia using chlorpromazine (8 mg/kg, idem) and atropine (0.05 mg/kg, idem).
Mononeuropathy was induced in different groups of rats (n=6 rats in each group) according to the CCI (chronic constriction injury, chronic nerve constriction, Bennet G. J. et Xie Y. K., 1988, A peripheral mononeuropathy in rat that produces disorders of pain sensation like those seen in man, Pain, 33:87-107) or according to the SNI (spared nerve injury, spared nerve of the enervated paw, Decosterd I. et Woolf C. J., 2000, Spared nerve injury: an animal model of persistent peripheral neuropathic pain, Pain, 87:149-158). The sciatic nerve was exposed after dissection of the posterior hip and by incision through the skin and the fatty layer covering the popliteal fossa. For the CCI model, four loose ligatures (chromed catgut 4.0) were placed on the proximal side of the sciatic trifurcation. For the SNI model, the external popliteal sciatic nerve and the internal popliteal sciatic nerve were isolated, tightly ligatured and sectioned, while the sural nerve innervating the lateral aspect of the paw was left intact.
The rats were placed in individual compartments of one cage, whose floor was made of a metal grating allowing access to the heel pad and to the lateral aspect of the paw with wires.
For mechanical allodynia, the plantar surface of the hind paws (lateral surface for the SNI model and the median plantar surface for the CCI) was contacted with the von Frey wires (VFF 4.31 and 5.07, Stoelting Co., USA), which corresponded to the forces of 2.041 and 11.749 g (18.5 and 106.7 mN), respectively. […] The number of paw retractions induced by 10 trials was established for each rat on each hind paw prior to (baseline) and after induction of the mono-neuropathy. In normal rats, the low caliber wires (VFF 4.31) and higher caliber (VFF 5.07) induced an average 1.3±0.2 and 2.7±0.3 responses/10 trials, respectively.
The method described by Choi et al. (1994, Behavioral signs of ongoing pain and cold allodynia in a rat model of neuropathic pain, Pain, 59:369-376) was used for evaluation of cold allodynia. It consists of applying several drops (approximately 50 μl) of an acetone solution on the paw and measuring the duration of the retraction reaction. One half second and 20 seconds are the values chosen arbitrarily for the minimum and maximum threshold, respectively.
The duration (D) of retraction of the paw (RP) in response to a nociceptive ray of radiant heat oriented towards the plantar surface was established in the normal rat. […] the DRP after induction of the mononeuropathy was considered to be an indication of hyperalgesia. Each rat underwent two RP tests per session a minimum of every five minutes.
The neuropathic manifestations were at maximum seven to ten days after induction of the neuropathy. The effects of the injections of TAP were tested during this period, which corresponds to the peak of the neuropathy.
During the experiments done on rats suffering from neuropathy, allodynia and hyperpathy were evaluated in each group of animals with reference to the baseline condition established prior to induction of mononeuropathy. For example, the average of the number of paw withdrawal induced by each VFF was calculated for all of the rats of each group and the variation of this mean has been determined after treatment with TAP at different time periods after the injection. The same method has been followed for allodynia in the code and the hypertrophy relative to heat.

[1] = SNI, meloxican 5 mg/kg i.p., morphine 4 mg/kg i.p., at peak of activity 45-60 minutes after injection, FIG. 10

Glu-Ala-lys-Ser-Gln-Gly-Gly-Ser-Asp (SQGGSD; N-terminal Glu-Ala-Lys; printed: Ser-Gln-Gly-Gly-Ser-Asp) [TAP]
reversibility of the effects, time after injection (SNI, TAP 5 μg i.p.): three to four hours | time of maximum effect on all of the neuropathic manifestations after injection (SNI, TAP 5 μg i.p.): 75 min | dose giving maximal attenuation of the neuropathic manifestations (SNI, doses 1, 5 and 25 μg compared, FIG. 7): 5 μg/rat | reduction of tactile allodynia compared with meloxican and morphine [1]: greater reduction | reduction of thermal hyperalgesia compared with meloxican and morphine [1]: greater reduction | effect on cold allodynia, SNI model (TAP 5 μg i.p., single injection): only moderately reduced | effect on neuropathic manifestations, SNI model (TAP 5 μg in 100 μl i.p., FIG. 6): significant attenuation
